Test results published in ChEMBL document CHEMBL6177949, “Exploiting Solvent Exposed Salt-Bridge Interactions for the Discovery of Potent Inhibitors of SOS1 Using Free-Energy Perturbation Simulations” (ACS Med Chem Lett, 2025).
Converted amounts (≈) assume the structure as drawn.

Tests used:
[1] = Dissociation constant, pKa of compound at 33 uM by UV-vis spectroscopy; assay type: physicochemical
[2] = Apparent permeability across apical to basolateral side in MDCKII-MDR1 cells at 10 uM measured after 60 mins by LC-MS/MS analysis; assay type: ADME, cell-based, Canis lupus familiaris; conditions: dog, MDCK-MDR1
[3] = target: Voltage-gated inwardly rectifying potassium channel KCNH2 (Homo sapiens, UniProt Q12809); assay: Inhibition of human ERG stably transfected in HEK293 cells by manual patch-clamp assay; assay type: toxicity, cell-based
[4] = Half life in BALB/c mouse at 1 mg/kg, iv administered as bolus dose by LC-MS/MS analysis; assay type: ADME, organism-based; conditions: in vivo
[5] = tested on: NCI-H358; assay: cells; conditions: Homo sapiens
Description: Antiproliferative activity against human NCI-H358 cells assessed as reduction in cell viability incubated for 10 days with media refreshed for every 5 days by celltiter-glo assay

[6] = Volume of distribution at steady state in BALB/c mouse at 1 mg/kg, iv administered as bolus dose by LC-MS/MS analysis; assay type: ADME, organism-based; conditions: in vivo, read-out: Vdss
[7] = Intrinsic clearance in mouse liver microsomes at 1 uM measured after 0.5 to 30 mins in presence of NADPH by LC-MS/MS analysis; assay type: ADME, Microsome; conditions: time 0.5-30 min, read-out: CLH
[8] = Kinetic solubility of the compound in pH 7.4 phosphate buffered saline at 300 uM measured after 2 hrs by LC-MS/MS analysis; assay type: physicochemical; conditions: read-out: Kinetic_solubility
[9] = Oral bioavailability in BALB/c mouse at 5 mg/kg administered via gavage by LC-MS/MS analysis; assay type: ADME, organism-based; conditions: in vivo
[10] = Lipophilicity, log D of the compound in octanol/phosphate buffer at pH 7.4 measured after 2 hrs by LC-MS/MS based shake flask method; assay type: physicochemical
[11] = Intrinsic clearance in human liver microsomes at 1 uM measured after 0.5 to 30 mins in presence of NADPH by LC-MS/MS analysis; assay type: ADME, Microsome; conditions: time 0.5-30 min, read-out: CLH
[12] = Unbound clearance in BALB/c mouse at 5 mg/kg, po via gavage or 1 mg/kg, iv administered as bolus dose by LC-MS/MS analysis; assay type: ADME, organism-based; conditions: in vivo
[13] = target: Son of sevenless homolog 1 (Homo sapiens, UniProt Q07889, G12C); assay: Binding affinity to recombinant human His10-tagged SOS1 (564 to 1049 residues) assessed as inhibition of GST-tagged human KRAS G12C mutant (1 to 169 residues) interaction with SOS1 preincubated for 15 mins followed by KRAS addition and measured after 2 hrs by FRET assay
Chain of Son of sevenless homolog 1 (Q07889 whole entry, looked up, stated change not applied, the tested form may be a part): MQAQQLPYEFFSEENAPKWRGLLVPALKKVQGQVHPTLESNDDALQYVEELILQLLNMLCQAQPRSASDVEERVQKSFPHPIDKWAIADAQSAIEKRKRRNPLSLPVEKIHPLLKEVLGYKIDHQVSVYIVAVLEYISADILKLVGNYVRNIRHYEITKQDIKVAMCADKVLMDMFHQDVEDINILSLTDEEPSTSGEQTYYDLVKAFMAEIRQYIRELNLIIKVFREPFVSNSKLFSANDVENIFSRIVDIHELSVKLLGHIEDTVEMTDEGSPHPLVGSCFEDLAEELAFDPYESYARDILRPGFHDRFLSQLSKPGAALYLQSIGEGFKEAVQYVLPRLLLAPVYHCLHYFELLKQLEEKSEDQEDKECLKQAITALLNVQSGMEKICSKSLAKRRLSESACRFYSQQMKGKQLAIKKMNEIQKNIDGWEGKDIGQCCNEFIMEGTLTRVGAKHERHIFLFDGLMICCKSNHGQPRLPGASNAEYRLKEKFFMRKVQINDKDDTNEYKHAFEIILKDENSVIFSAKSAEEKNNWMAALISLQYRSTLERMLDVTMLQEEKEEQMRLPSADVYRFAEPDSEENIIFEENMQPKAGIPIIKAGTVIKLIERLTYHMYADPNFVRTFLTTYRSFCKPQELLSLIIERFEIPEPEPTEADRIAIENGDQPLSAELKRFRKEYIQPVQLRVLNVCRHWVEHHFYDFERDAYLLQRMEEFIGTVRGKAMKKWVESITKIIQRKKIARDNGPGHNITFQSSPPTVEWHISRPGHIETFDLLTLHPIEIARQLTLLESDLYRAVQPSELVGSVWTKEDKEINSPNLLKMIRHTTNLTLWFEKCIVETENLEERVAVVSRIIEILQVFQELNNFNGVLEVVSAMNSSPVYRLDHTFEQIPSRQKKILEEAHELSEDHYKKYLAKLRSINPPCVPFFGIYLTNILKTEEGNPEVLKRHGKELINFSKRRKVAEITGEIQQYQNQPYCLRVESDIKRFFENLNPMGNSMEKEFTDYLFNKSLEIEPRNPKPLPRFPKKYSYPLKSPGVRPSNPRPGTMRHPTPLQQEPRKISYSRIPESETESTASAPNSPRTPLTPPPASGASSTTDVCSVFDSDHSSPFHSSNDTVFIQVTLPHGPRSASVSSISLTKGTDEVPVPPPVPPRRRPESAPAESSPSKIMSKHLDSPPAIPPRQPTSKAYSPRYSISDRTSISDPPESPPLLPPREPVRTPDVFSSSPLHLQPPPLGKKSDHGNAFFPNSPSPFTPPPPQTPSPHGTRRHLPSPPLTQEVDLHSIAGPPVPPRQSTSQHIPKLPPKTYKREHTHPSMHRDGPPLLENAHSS

Chain of Voltage-gated inwardly rectifying potassium channel KCNH2 (Q12809 whole entry): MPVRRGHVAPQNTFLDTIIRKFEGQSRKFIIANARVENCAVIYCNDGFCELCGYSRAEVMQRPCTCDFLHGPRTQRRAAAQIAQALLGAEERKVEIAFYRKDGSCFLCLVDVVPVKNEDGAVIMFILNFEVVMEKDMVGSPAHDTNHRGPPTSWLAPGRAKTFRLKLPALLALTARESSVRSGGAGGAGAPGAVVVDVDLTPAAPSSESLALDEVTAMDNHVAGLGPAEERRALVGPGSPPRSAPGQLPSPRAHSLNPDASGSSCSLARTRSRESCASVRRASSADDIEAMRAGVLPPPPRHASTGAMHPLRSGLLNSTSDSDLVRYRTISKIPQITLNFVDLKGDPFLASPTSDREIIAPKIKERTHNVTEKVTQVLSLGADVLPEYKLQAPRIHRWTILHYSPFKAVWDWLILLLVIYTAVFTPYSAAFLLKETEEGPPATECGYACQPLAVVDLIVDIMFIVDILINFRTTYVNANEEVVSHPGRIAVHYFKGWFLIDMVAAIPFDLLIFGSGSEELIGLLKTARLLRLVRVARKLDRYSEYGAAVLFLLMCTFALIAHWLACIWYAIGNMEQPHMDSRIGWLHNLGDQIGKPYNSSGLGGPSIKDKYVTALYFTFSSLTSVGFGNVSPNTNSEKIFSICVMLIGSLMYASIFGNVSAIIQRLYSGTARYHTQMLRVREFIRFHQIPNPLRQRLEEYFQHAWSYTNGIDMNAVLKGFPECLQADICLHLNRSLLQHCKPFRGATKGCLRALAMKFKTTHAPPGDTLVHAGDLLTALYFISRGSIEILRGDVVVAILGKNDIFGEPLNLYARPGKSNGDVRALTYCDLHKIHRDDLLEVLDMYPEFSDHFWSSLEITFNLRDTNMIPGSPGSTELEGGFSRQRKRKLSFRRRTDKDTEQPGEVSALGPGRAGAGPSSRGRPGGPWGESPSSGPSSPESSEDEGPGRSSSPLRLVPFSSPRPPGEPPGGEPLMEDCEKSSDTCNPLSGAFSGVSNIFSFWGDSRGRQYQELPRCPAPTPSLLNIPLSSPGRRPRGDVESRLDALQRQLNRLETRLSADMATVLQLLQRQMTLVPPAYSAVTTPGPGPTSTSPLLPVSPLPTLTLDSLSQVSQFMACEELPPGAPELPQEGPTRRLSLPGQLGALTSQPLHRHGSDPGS

Row | Compound | pKa at 33 µM [1] | Papp A→B at 1 h, 10 µM [2] [×10⁻⁶ cm/s] | IC50 [5] [nM] | CLint scaled at 1 µM [7] [mL/min/kg] | logD at 2 h [10] | CLint scaled at 1 µM [11] [mL/min/kg] | other results
1 | Cc1c([C@@H](C)Nc2nc3c(c(=O)n2C)CNCC3)cccc1C(F)(F)F | – | 3.2 | – | – | – | – | –
2 | C[C@@H](Nc1nc2c(c3cc(=O)n(C4CC4)cc13)CC(N1CCC1)CC2)c1cccc(C(F)F)c1F (some centres undefined) | – | 0.3 | 19 | 49 | 2.6 | 9 | IC50 [3]: 1100 nM; half-life [4]: 1.1 h; Vd [6]: 4.1 L/kg; solubility kinetic at 2 h, 300 µM [8]: 226 µM (≈ 109 µg/mL); bioavailability [9]: 2%; CL free [12]: 353 mL/min/kg
3 | Oc1cc(-c2ncc3c(N4C[C@H]5CC[C@@H](C4)N5)nc(OCC45CCCN4CCC5)nc3c2F)c2ccccc2c1 | – | – | – | – | – | – | IC50 [13]: < 2 nM
4 | Cc1c(C#N)cccc1[C@@H](C)Nc1nnc(C)c2cnc(N3CCOCC3)cc12 [MRTX-0902] | – | – | 22 | – | – | – | –
5 | C[C@@H](Nc1nc2c(c3cc(=O)n(C4CC4)cc13)CC(N1CC[C@@H](F)C1)CC2)c1cccc(C(F)F)c1F (some centres undefined) | – | 0.2 | 32 | 143 | 3.7 | 56 | IC50 [3]: 1100 nM; half-life [4]: 4 h; Vd [6]: 4.6 L/kg; solubility kinetic at 2 h, 300 µM [8]: 90 µM (≈ 46.3 µg/mL); bioavailability [9]: 2%; CL free [12]: 816 mL/min/kg
6 | COc1cc2nc(C)nc(N[C@H](C)c3cc(N)cc(C(F)(F)F)c3)c2cc1O[C@H]1CCOC1 | – | – | 32 | – | – | – | –

Continued, in another order:

Row | pKa at 33 µM [1] | Compound | Papp A→B at 1 h, 10 µM [2] [×10⁻⁶ cm/s] | IC50 [5] [nM] | CLint scaled at 1 µM [7] [mL/min/kg] | logD at 2 h [10] | CLint scaled at 1 µM [11] [mL/min/kg] | other results
7 | 9.3 | C[C@@H](Nc1nc2c(c3cc(=O)n(C4CCOCC4)cc13)CC(N1CCC1)CC2)c1cccc(C(F)F)c1F (some centres undefined) | – | – | – | – | – | –
8 | 6.1 | C[C@@H](Nc1nc2c(c3cc(=O)n(C4CCOCC4)cc13)CC(N1CC(F)(F)C1)CC2)c1cccc(C(F)F)c1F (some centres undefined) | – | – | – | – | – | –
9 | 7.8 | COC1CN(C2CCc3nc(N[C@H](C)c4cccc(C(F)F)c4F)c4cn(C5CCOCC5)c(=O)cc4c3C2)C1 (some centres undefined) | – | – | – | – | – | –
10 | 8.8 | Cc1c([C@@H](C)Nc2nc3c(c4cc(=O)n(C5CCOCC5)cc24)CNCC3)cccc1C(F)(F)F | 0.2 | – | 46 | 2.9 | 11 | –
